Drawing on PubChem BioAssay AID256 (DTP/NCI, 2004), this text covers T/C for 25 compounds.

The test system of this assay is CD2F1 mice, L1210 leukemia ip, survival T/C. Kind of assay: NCI In Vivo Anticancer Drug Screen. Data for tumor model L1210 Leukemia (intraperitoneal) in CD2F1 (CDF1) mice. As to conditions: higher = longer survival. The gist of the method: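 Transplantable tumor in mice; compound-treated vs vehicle-treated groups. Read-out = treated/control ratio of the measured endpoint.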

Setting [1] is: endpoint: mean survival time, dose: 100.0 mg/kg/injection, schedule: Q01DX001 (ip), vehicle: saline with Tween-80.
[2] abbreviates: endpoint: mean survival time, dose: 200.0 mg/kg/injection, schedule: Q01DX001 (ip), vehicle: saline with Tween-80.
Where [3] appears, read: endpoint: mean survival time, dose: 400.0 mg/kg/injection, schedule: Q01DX001 (ip), vehicle: saline with Tween-80.
Setting [4] is: endpoint: mean survival time, dose: 100.0 mg/kg/injection, schedule: Q04DX003 (ip), vehicle: saline with Tween-80.
Where [5] appears, read: endpoint: mean survival time, dose: 200.0 mg/kg/injection, schedule: Q04DX003 (ip), vehicle: saline with Tween-80.
[6] abbreviates: endpoint: mean survival time, dose: 12.5 mg/kg/injection, schedule: Q01DX009 (ip), vehicle: saline with Tween-80.
The mark [7] stands for this setting: endpoint: mean survival time, dose: 25.0 mg/kg/injection, schedule: Q01DX009 (ip), vehicle: saline with Tween-80.
[8] abbreviates: endpoint: mean survival time, dose: 100.0 mg/kg/injection, schedule: Q01DX001 (ip), vehicle: saline.
[9] abbreviates: endpoint: mean survival time, dose: 200.0 mg/kg/injection, schedule: Q01DX001 (ip), vehicle: saline.
The mark [10] stands for this setting: endpoint: mean survival time, dose: 50.0 mg/kg/injection, schedule: Q01DX009 (ip), vehicle: saline with Tween-80.
Setting [11] is: endpoint: mean survival time, dose: 100.0 mg/kg/injection, schedule: Q01DX009 (ip), vehicle: saline with Tween-80.
Where [12] appears, read: endpoint: mean survival time, dose: 200.0 mg/kg/injection, schedule: Q01DX009 (ip), vehicle: saline with Tween-80.
Setting [13] is: endpoint: mean survival time, dose: 400.0 mg/kg/injection, schedule: Q01DX009 (ip), vehicle: saline with Tween-80.
The mark [14] stands for this setting: endpoint: mean survival time, dose: 400.0 mg/kg/injection, schedule: Q04DX003 (ip), vehicle: saline with Tween-80.

Values joined by “and” are separate entries in the source; they are usually repeats but may differ in a detail not shown here. Identical values can stand only once. Inconclusive results and toxic doses are left out. Residues, ends and D or L forms follow the SMILES beside them. *: point of attachment. Cbz = O=C(OCc1ccccc1)*

In the case of `CCCCC(CCCC)CS(=O)[O-].[C-]#[O+].[C-]#[O+].[Fe+6].[c-]1[c-][c-][cH-][c-]1`, the T/C is, setting by setting: (endpoint: mean survival time, dose: 25.0 mg/kg/injection, schedule: Q04DX002 (ip), vehicle: saline) 102 % of control; (endpoint: mean survival time, dose: 50.0 mg/kg/injection, schedule: Q04DX002 (ip), vehicle: saline) 87 % of control; (endpoint: mean survival time, dose: 100.0 mg/kg/injection, schedule: Q04DX002 (ip), vehicle: saline) 106 % of control.

Regarding `Cc1c2c(cc3c1CCC1(C)C3CCC1C(C)/C=C/C(C)C(C)C)CC(O)CC2` (stereo unspecified), the T/C reads like this: under setting [1], 92 % of control; under setting [2], 95 % of control; under setting [3], 92 % of control.

Turning to `CCOC(=O)N1CCN(N=Nc2c(C(=O)OC)n[nH]c2C)CC1`, the T/C is 103 % of control (endpoint: mean survival time, dose: 75.0 mg/kg/injection, schedule: Q01DX001 (ip), vehicle: other); 105 % of control (endpoint: mean survival time, dose: 150.0 mg/kg/injection, schedule: Q01DX001 (ip), vehicle: other); 105 % of control (endpoint: mean survival time, dose: 300.0 mg/kg/injection, schedule: Q01DX001 (ip), vehicle: other).

As to `O=[N+]([O-])c1cccc(/C=C/C2(CCl)OCCO2)c1`, the T/C under setting [1] was 101 % of control and the T/C under setting [2] is 116 % of control.

For the compound `CCCCC(CC(=O)O)c1ccc(Cl)cc1` (stereo unspecified), the T/C is, setting by setting: under setting [4], 95 % of control; under setting [5], 101 % of control.

`O/N=C/c1ccccc1O.O/N=C/c1ccccc1O.[Cu]`: the T/C reads like this: (endpoint: mean survival time, dose: 1.56 mg/kg/injection, schedule: Q01DX009 (ip), vehicle: saline with Tween-80) 98 % of control and 103 % of control; (endpoint: mean survival time, dose: 3.12 mg/kg/injection, schedule: Q01DX009 (ip), vehicle: saline with Tween-80) 102 % of control and 106 % of control; (endpoint: mean survival time, dose: 6.25 mg/kg/injection, schedule: Q01DX009 (ip), vehicle: saline with Tween-80) 93 % of control and 101 % of control; under setting [6], 100 % of control and 108 % of control; under setting [7], 114 % of control and 100 % of control.

As for `CC(C)[NH-].CC(C)[NH-].O.O.[Cl][Pt+2][Cl]`, the T/C reads like this: (endpoint: mean survival time, dose: 1.5 mg/kg/injection, schedule: Q01DX009 (ip), vehicle: saline) 118 % of control; (endpoint: mean survival time, dose: 1.57 mg/kg/injection, schedule: Q01DX009 (ip), vehicle: saline) 115 % of control; under setting [8], 112 % of control; under setting [9], 90 % of control.

Consider `CCCCCCCCCCCC1=C(O)C(=O)C=C(O)C1=O`, for which the T/C (endpoint: mean survival time, dose: 12.5 mg/kg/injection, schedule: Q01DX001 (ip), vehicle: saline) was 102 % of control; the T/C (endpoint: mean survival time, dose: 25.0 mg/kg/injection, schedule: Q01DX001 (ip), vehicle: saline) is 123 % of control; the T/C (endpoint: mean survival time, dose: 50.0 mg/kg/injection, schedule: Q01DX001 (ip), vehicle: saline) was 101 % of control.

For the compound `Nc1cc2c(nnn2C2OC(CO)C(O)C2O)c(=O)[nH]1` (stereo unspecified), the T/C runs as follows: (endpoint: mean survival time, dose: 12.5 mg/kg/injection, schedule: Q01DX005 (ip), vehicle: distilled water + Tween-80) 98 % of control; (endpoint: mean survival time, dose: 25.0 mg/kg/injection, schedule: Q01DX005 (ip), vehicle: distilled water + Tween-80) 98 % of control; (endpoint: mean survival time, dose: 50.0 mg/kg/injection, schedule: Q01DX005 (ip), vehicle: distilled water + Tween-80) 102 % of control; (endpoint: mean survival time, dose: 100.0 mg/kg/injection, schedule: Q01DX005 (ip), vehicle: distilled water + Tween-80) 98 % of control; (endpoint: mean survival time, dose: 200.0 mg/kg/injection, schedule: Q01DX005 (ip), vehicle: distilled water + Tween-80) 88 % of control.

Consider `COC(OC)C(OC(C)=O)C(OC(C)=O)C(COC(C)=O)OC(C)=O` (stereo unspecified), for which the T/C reads like this: under setting [8], 107 % of control; under setting [9], 95 % of control; (endpoint: mean survival time, dose: 400.0 mg/kg/injection, schedule: Q01DX001 (ip), vehicle: saline) 101 % of control.

On to `O=C(Nc1nncs1)c1cccs1`, for which the T/C was 95 % of control and 104 % of control under setting [6]; 93 % of control and 103 % of control under setting [7]; 93 % of control and 94 % of control under setting [10]; 92 % of control and 100 % of control under setting [11]; 118 % of control under setting [12]; 172 % of control under setting [13].

As to `CCOn1nc(-c2cccc3ccccc23)oc1=O`, the T/C is 91 % of control under setting [1], 95 % of control under setting [2] and 95 % of control under setting [3].

As for `CC1(C)OC2C(COC(=O)Oc3ccccc3)OC(n3cnc4c(=O)[nH]cnc43)C2O1` (stereo unspecified), the T/C by setting is: under setting [1], 101 % of control; (endpoint: mean survival time, dose: 100.0 mg/kg/injection, schedule: Q04DX002 (ip), vehicle: saline with Tween-80) 102 % of control; under setting [2], 97 % of control; (endpoint: mean survival time, dose: 200.0 mg/kg/injection, schedule: Q04DX002 (ip), vehicle: saline with Tween-80) 94 % of control; under setting [3], 94 % of control; (endpoint: mean survival time, dose: 400.0 mg/kg/injection, schedule: Q04DX002 (ip), vehicle: saline with Tween-80) 97 % of control.

For the compound `CC(=[C-]C(=O)O)C(=O)O.[NH-]C1CCCCC1[NH-].[Pt]`, the T/C was 100 % of control (endpoint: median survival time, dose: 6.25 mg/kg/injection, schedule: Q04DX003 (ip), vehicle: saline); 100 % of control (endpoint: median survival time, dose: 12.5 mg/kg/injection, schedule: Q04DX003 (ip), vehicle: saline); 102 % of control (endpoint: median survival time, dose: 25.0 mg/kg/injection, schedule: Q04DX003 (ip), vehicle: saline); 108 % of control (endpoint: median survival time, dose: 50.0 mg/kg/injection, schedule: Q04DX003 (ip), vehicle: saline); 112 % of control (endpoint: median survival time, dose: 100.0 mg/kg/injection, schedule: Q04DX003 (ip), vehicle: saline).

Turning to `O=C1NC(=O)C2CC(Br)C(Br)CC12` (stereo unspecified), the T/C was 103 % of control (endpoint: mean survival time, dose: 5.0 mg/kg/injection, schedule: Q01DX001 (ip), vehicle: saline); 101 % of control (endpoint: mean survival time, dose: 10.0 mg/kg/injection, schedule: Q01DX001 (ip), vehicle: saline); 100 % of control (endpoint: mean survival time, dose: 20.0 mg/kg/injection, schedule: Q01DX001 (ip), vehicle: saline).

For the compound `CCOC(CNC(=O)NC1CCCCC1)OCC`, the T/C is 113 % of control under setting [11]; 103 % of control under setting [4]; 104 % of control under setting [12]; 104 % of control under setting [5]; 108 % of control under setting [13]; 93 % of control under setting [14].

With `CN(C)N=Nc1ccccc1C(=O)NCC#N`, the T/C (endpoint: mean survival time, dose: 18.75 mg/kg/injection, schedule: Q01DX009 (ip), vehicle: Klucel (hydroxypropylcellulose) (HPC)) was 100 % of control and 103 % of control; the T/C (endpoint: mean survival time, dose: 37.5 mg/kg/injection, schedule: Q01DX009 (ip), vehicle: Klucel (hydroxypropylcellulose) (HPC)) was 106 % of control and 107 % of control; the T/C (endpoint: mean survival time, dose: 75.0 mg/kg/injection, schedule: Q01DX009 (ip), vehicle: Klucel (hydroxypropylcellulose) (HPC)) is 112 % of control; the T/C (endpoint: mean survival time, dose: 150.0 mg/kg/injection, schedule: Q01DX009 (ip), vehicle: Klucel (hydroxypropylcellulose) (HPC)) was 91 % of control.

Regarding `CCOC(=O)N1C2c3ccccc3C(c3ccccc32)N1C(=O)OCC`, the T/C by setting is: under setting [11], 94 % of control; under setting [4], 95 % of control; under setting [12], 89 % of control; under setting [5], 98 % of control; under setting [14], 93 % of control.

Take `O=C(O)c1ccc(Cl)c(N=C/C=C/c2ccccc2)c1`: the T/C was 97 % of control (endpoint: mean survival time, dose: 75.0 mg/kg/injection, schedule: Q04DX003 (ip), vehicle: saline); 100 % of control (endpoint: mean survival time, dose: 150.0 mg/kg/injection, schedule: Q04DX003 (ip), vehicle: saline); 100 % of control (endpoint: mean survival time, dose: 300.0 mg/kg/injection, schedule: Q04DX003 (ip), vehicle: saline).

On to `O=C(Nc1ccccc1)OCC1CC2CCC1C2` (stereo unspecified), for which the T/C under setting [11] is 87 % of control, the T/C under setting [12] was 93 % of control and the T/C under setting [13] was 95 % of control.

Turning to `Cc1ccc(Cl)cc1NC(=O)c1c(Br)c(Br)c(Br)c(Br)c1C(=O)O`, the T/C runs as follows: under setting [1], 106 % of control; under setting [2], 110 % of control; under setting [3], 108 % of control.

With `N/N=C(/C(=O)c1ccccc1)c1ccccc1`, the T/C is, setting by setting: under setting [11], 95 % of control; under setting [12], 97 % of control; under setting [13], 95 % of control.

As for `Cc1ccc(/C=N/NC(=O)CNC(=O)Nc2cccc([N+](=O)[O-])c2)cc1`, the T/C under setting [10] was 92 % of control and the T/C under setting [11] is 88 % of control.

As for `NC(=O)CNC(=O)CNC(=O)CNC(=O)OCc1ccccc1` (Cbz-Gly-Gly-Gly-NH2), the T/C is 105 % of control under setting [6], 102 % of control under setting [7] and 95 % of control under setting [10].

Take `O=C1C=C(CCc2ccccc2)CCC1`: the T/C reads like this: under setting [11], 107 % of control; under setting [12], 107 % of control; under setting [13], 108 % of control.
